Drawing on patent US11021445B2, “Carboxylic acid derivative as AT2R receptor antagonist” (SHANDONG DANHONG PHARMACEUTICAL CO., LTD., priority 2017, dated 2021), this text covers IC50 for 41 compounds.

For the assay, the target named is T1, hAT2 (Homo sapiens, UniProt P50052).
T1 construct: expressed in transfected cells; host or cells: HEK-293
T1 sequence (P50052 1-363): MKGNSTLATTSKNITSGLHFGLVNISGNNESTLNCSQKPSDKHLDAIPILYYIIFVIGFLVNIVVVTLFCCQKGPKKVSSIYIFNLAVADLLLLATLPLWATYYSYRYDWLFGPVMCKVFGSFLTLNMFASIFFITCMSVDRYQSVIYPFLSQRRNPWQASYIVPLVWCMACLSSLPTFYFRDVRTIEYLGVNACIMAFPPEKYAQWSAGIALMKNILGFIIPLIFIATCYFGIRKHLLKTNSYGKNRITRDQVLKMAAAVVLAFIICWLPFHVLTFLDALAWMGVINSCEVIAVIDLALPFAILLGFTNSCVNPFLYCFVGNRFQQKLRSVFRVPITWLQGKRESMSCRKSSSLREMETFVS
The assay is described as follows: hAT2 receptor binding assay (SPA, [125I]-Sar1-Ile8-Angiotensin II). The note with it: membrane of HEK-293 cells overexpressing hAT2; 0.1 nM 125I ligand. The method, then:
hAT2 Receptor Binding Assay
Protease inhibitor mixture, free of ethylenediaminetetraacetic acid-1 tablets (Roche #11873580001) (50 mL plus one piece)
Experimental Methods and Steps
The reference ligand PD123319 and the test compound were prepared into a 750 μM mother liquor by DMSO; each compound was prepared into a solution of 8 concentration gradients (up to a concentration of 750 μM, 3-fold dilution) and 10 μl of the solution was added to a master of a 384-well plate per well.
The SPA beads were prepared to a mother liquor of 25 mg/ml by the buffer;
The isotope [^125I]-Sar1-Ile8-Angiotensin II was prepared into a mother liquor of 50 μCi/ml by adding pure water.
The cell membrane overexpressing hAT2 in HEK-293 cells was prepared to 2.5 mg/ml by the buffer.
200 nl of compound was aspirated from the mother plate with ECHO to each well of the 384-well test plate. ZPE was added to an equal volume of DMSO. (The concentration of the test compound in the reaction was diluted by 250 times).
A 50 ml membrane solution containing 10 μg/μl of magnetic beads and 0.05 μg/μl of AT2 was prepared, placed on a shaker and uniformly mixed. (100 rpm, 30 min). The test plate finally contained an hAT2 membrane with 1.25 μg/well and magnetic beads with 250 μg/well.
A 3.2 ml membrane liquid mixture was added to the compound test plate by using a Multidrop Combi pipette, and 25 μl was added to each well.
A 0.2 nM solution was prepared with 50 μCi/ml of isotope [^125I]-Sar1-Ile8-Angiotensin II mother liquor by the buffer, and 0.2 nM of ^125I was added to the compound test plate with a Multidrop Combi pipette. A volume of 25 μl was added to each well. The final concentration of ^125I isotope is 0.1 nM.
The prepared test plate was placed on a shaker overnight at room temperature at 200 rpm.
The test plate was centrifuged with a centrifuge at 1200 rpm for 1 min.
The centrifuged test plate was read with Microbeta.
Compound `Cc1ccc2c(c1OCc1ccccc1)C[C@@H](C(=O)O)N(C(=O)[C@@H](OC1(C)CCCC1)c1ccccc1)C2` [Compound 69] had a half-maximal inhibitory concentration (IC50) of 1.7 nM. The compound `COc1ccc2c(c1OCc1ccccc1)C[C@@H](C(=O)O)N(C(=O)[C@@H](Oc1ccc(F)cc1F)c1ccccc1)C2` [Compound 27] registered an IC50 of 245 nM. Against the preceding compound, the IC50 is about 140-fold higher. Turning to `COc1ccc2c(c1OCc1ccccc1)C[C@@H](C(=O)O)N(C(=O)[C@H](OC1CCC3CC31)c1ccccc1)C2` (single isomer, unassigned) [Compound 61], the IC50 turned out to be 72.7 nM. Against the preceding compound, the IC50 is about 3.4-fold lower. With `COc1ccc2c(c1OCc1ccccc1)C[C@@H](C(=O)O)N(C(=O)[C@@H](OCC(F)(F)F)c1ccccc1)C2` [Compound 7], the IC50 stood at 35.2 nM. On to `COc1ccc2c(c1OCc1ccccc1)C[C@@H](C(=O)O)N(C(=O)[C@@H](NC(=O)C1CCCC1)c1ccccc1)C2` [Compound 42], for which the IC50 came to 161 nM. Regarding `O=C(O)[C@@H]1Cc2c(cccc2OCc2ccccc2)CN1C(=O)[C@H](O[C@H]1CC[C@@H](O)CC1)c1ccccc1` [Compound 82], the IC50 is 20.8 nM.

For the compound `CC1(O[C@@H](C(=O)N2Cc3cccc(OCc4ccccc4)c3C[C@H]2C(=O)O)c2ccccc2)CCCC1` [Compound 80], the half-maximal inhibitory concentration (IC50) was found to be 323 nM. This IC50 is about 16-fold higher than that of the compound before.

The compound `CCCCO[C@@H](C(=O)N1Cc2ccc(OC)c(OCc3ccccc3)c2C[C@H]1C(=O)O)c1ccccc1` [Compound 6] registered an IC50 of 383 nM. Compound `COc1ccc2c(c1OCc1ccccc1)C[C@@H](C(=O)O)N(C(=O)[C@H](OC1CCCC1)c1ccc(F)cc1)C2` [Compound 54] yielded an IC50 above 3000 nM.

The compound `COc1ccc(O[C@H](C(=O)N2Cc3ccc(OC)c(OCc4ccccc4)c3C[C@H]2C(=O)O)c2ccccc2)cc1` [Compound 23] yielded an IC50 above 3000 nM. Next, `COc1ccc2c(c1OCc1ccccc1)C[C@@H](C(=O)O)N(C(=O)[C@@H](OC1CCC3CC31)c1ccccc1)C2` (single isomer, unassigned) [Compound 60]: 2.5 nM.

The compound `CC1(O[C@H](C(=O)N2Cc3cccc(OCc4ccccc4)c3C[C@H]2C(=O)O)c2ccccc2)CCCC1` [Compound 79] gave an IC50 of 5.8 nM. Compared with the last compound, the IC50 is about 2.3-fold higher. Next, `COc1ccc2c(c1OCc1ccccc1)C[C@@H](C(=O)O)N(C(=O)[C@H](Oc1ccccc1F)c1ccccc1)C2` [Compound 18]: 54.1 nM; `COc1ccc2c(c1OCc1ccccc1)C[C@@H](C(=O)O)N(C(=O)[C@@H](Oc1ccccn1)c1ccccc1)C2` [Compound 21]: 195 nM. Turning to `O=C(O)[C@H]1Cc2c(ccc(Cl)c2OCc2ccccc2)CN1C(=O)[C@@H](OC1CCCC1)c1ccccc1` [Compound 108], the IC50 came to 234 nM. The compound `COc1ccc2c(c1OCc1ccccc1)C[C@@H](C(=O)O)N(C(=O)[C@@H](Oc1ccc(Cl)cc1)c1ccccc1)C2` [Compound 33] yielded a half-inhibitory concentration (IC50) of 648 nM. This IC50 lies about 2.8-fold higher than the previous one. Consider `COc1ccc2c(c1OCc1ccccc1)C[C@@H](C(=O)O)N(C(=O)[C@H](OC1COC1)c1ccccc1)C2` [Compound 14], for which the IC50 was above 3000 nM. Next, `COc1ccc2c(c1OCc1ccccc1)C[C@@H](C(=O)O)N(C(=O)[C@@H](Oc1ccc3ccccc3c1)c1ccccc1)C2` [Compound 35]: 1240 nM. Next, `COc1ccc2c(c1OCc1ccccc1)C[C@@](C)(C(=O)O)N(C(=O)[C@H](OC1CCCC1)c1ccccc1)C2` [Compound 115]: 115 nM. Take `COc1ccc2c(c1OCc1ccccc1)C[C@@H](C(=O)O)N(C(=O)[C@@H](Oc1ccc(C#N)cc1)c1ccccc1)C2` [Compound 29]: the IC50 came to 231 nM. This IC50 lies about 2-fold higher than the previous one. `COc1ccc2c(c1OCc1ccccc1)C[C@@H](C(=O)O)N(C(=O)C(OC1CCC(O)CC1)c1ccccc1)C2` (some centres unmarked) [Compound 48]: the IC50 turned out to be 21.4 nM. With `COc1ccc2c(c1OCc1ccccc1)C[C@@H](C(=O)O)N(C(=O)[C@H](Oc1ccc(F)cc1)c1ccccc1)C2` [Compound 32], the IC50 is 78.3 nM. For `N#Cc1ccc2c(c1OCc1ccccc1)C[C@H](C(=O)O)N(C(=O)[C@@H](OC1CCCC1)c1ccccc1)C2` [Compound 110] the value was 552 nM; for `COc1ccc2c(c1OCc1ccccc1)C[C@@H](C(=O)O)N(C(=O)[C@H](NC1CCCC1)c1ccccc1)C2` [Compound 41], 216 nM. With `COc1ccc2c(c1OCc1ccccc1)C[C@@H](C(=O)O)N(C(=O)[C@@H](OC(C)(C)C)c1ccccc1)C2` [Compound 39], the IC50 came out at 18.5 nM. As for `N#Cc1ccc2c(c1OCc1ccccc1)C[C@H](C(=O)O)N(C(=O)[C@H](OC1CCCC1)c1ccccc1)C2` [Compound 112], the IC50 came to 116 nM.

The compound `COc1ccc2c(c1OCc1ccccc1)C[C@@H](C(=O)O)N(C(=O)C(Oc1ccccc1)c1ccccc1)C2` (some centres unmarked) [Compound 46] displayed an IC50 of 186 nM. `COc1ccc2c(c1OCc1ccccc1)C[C@@H](C(=O)O)N(C(=O)[C@H](OC1(C)CCCC1)c1ccccc1)C2` [Compound 58]: the IC50 amounted to 155 nM. The IC50 values of the last two compounds are within 1.5-fold of each other. `Cc1ccc2c(c1OCc1ccccc1)C[C@@H](C(=O)O)N(C(=O)[C@H](OC1CC(F)(F)C1)c1ccccc1)C2` [Compound 68] came in with an IC50 of 67 nM. For the compound `COc1ccc2c(c1OCc1ccccc1)C[C@@H](C(=O)O)N(C(=O)[C@@H](OC1CCC3CC31)c1ccccc1)C2` (single isomer, unassigned) [Compound 59], the IC50 came out at 22.7 nM.

Compound `COc1ccc(O[C@@H](C(=O)N2Cc3ccc(OC)c(OCc4ccccc4)c3C[C@H]2C(=O)O)c2ccccc2)cc1` [Compound 24] displayed an IC50 of 192 nM. As to `COc1ccc2c(c1OCc1ccccc1)C[C@@H](C(=O)O)N(C(=O)[C@H](OC1CC3CC3C1)c1ccccc1)C2` (some centres unmarked) [Compound 56], the IC50 was 224 nM. `COc1ccc2c(c1OCc1ccccc1)C[C@@H](C(=O)O)N(C(=O)[C@@H](Oc1ccc(F)cc1)c1ccccc1)C2` [Compound 31] registered an IC50 of 59.6 nM. Consider `COc1ccc2c(c1OCc1ccccc1)C[C@@H](C(=O)O)N(C(=O)[C@@H](O[C@H]1CCOC1)c1ccccc1)C2` (single isomer, unassigned) [Compound 11], for which the IC50 is above 3000 nM. Next, `COc1ccc2c(c1OCc1ccccc1)C[C@@H](C(=O)O)N(C(=O)[C@@H](OC1CCCCC1)c1ccccc1)C2` [Compound 44]: 8 nM; `O=C(O)[C@@H]1Cc2c(cccc2OCc2ccccc2)CN1C(=O)[C@H](OC1CC(F)(F)C1)c1ccccc1` [Compound 84]: 481 nM; `COc1ccc2c(c1OCc1ccccc1)C[C@@H](C(=O)O)N(C(=O)[C@@H](Oc1ccccc1F)c1ccccc1)C2` [Compound 17]: 143 nM. Turning to `COc1ccc2c(c1OCc1ccccc1)C[C@@H](C(=O)O)N(C(=O)[C@@H](Oc1ccccc1)c1ccccc1)C2` [Compound 19], the IC50 amounted to 250 nM. For `COc1ccc2c(c1OCc1ccccc1)C[C@@H](C(=O)O)N(C(=O)[C@@H](NC1CCCC1)c1ccccc1)C2` [Compound 40], the half-maximal inhibitory concentration (IC50) was 9.1 nM. `COc1ccc2c(c1OCc1ccccc1)C[C@@H](C(=O)O)N(C(=O)[C@H](O[C@H]1CC[C@@H](O)CC1)c1ccccc1)C2` [Compound 64] gave an IC50 of 375 nM. This IC50 is about 41-fold higher than that of the compound before. Turning to `COc1ccc2c(c1OCc1ccccc1)C[C@@H](C(=O)O)N(C(=O)[C@@H](OC1CC3CC3C1)c1ccccc1)C2` (some centres unmarked) [Compound 55], the half-inhibitory concentration (IC50) stood at 4.4 nM. This IC50 lies about 85-fold lower than the previous one.

What is called IC50 is the concentration that inhibits the measured activity by half.
